Entries after “also recorded” stand apart in the source; their conditions may differ. Read-outs that look alike come from different tables or passages of the source. Values belong to the compound of their own block, whether it stands above or below them. Ends that are not written are not given here.
Columns and labels:
QC [1] = biological target: T1, QC (Homo sapiens, UniProt Q16769); assay: Long-term Glu1-cyclization of Aβ-derived peptides by recombinant human QC, MALDI-TOF; type: biochemical; parameters: The cDNA of the mature QC starting with codon 38 was fused in frame with the plasmid encoded 6× histidine tag; 6x histidine tag; made in house; host or cells: Pichia pastoris X33 (pPICZαB); also E. coli M15 (pQE-31); details: 5 mM benzimidazole
Excerpt: At different times, samples were removed from the assay tube, peptides extracted using ZipTips (Millipore) according to the manufacturer's recommendations, mixed with matrix solution (1:1 v/v) and subsequently the mass spectra recorded.

QC [2] = biological target: T1, QC; assay: LC/MS analysis of QC-catalyzed pyroglutamate formation; type: biochemical
[3] = Solubility in aqueous solution
[4] = system: Glutaminyl cyclase present in the homogenate of porcine pituitary; assay: Cyclization of Gln3-Aβ(3-11)a by QC in pituitary homogenate, MALDI-TOF; type: biochemical
Experimental: (§1) Matrix-assisted laser desorption/ionization mass spectrometry was carried out using the Hewlett-Packard G2025 LD-TOF System with a linear time of flight analyzer. […] Samples (5 μl) were mixed with equal volumes of the matrix solution. For matrix solution we used DHAP/DAHC, prepared by solving 30 mg 2′,6′-dihydroxyacetophenone (Aldrich) and 44 mg diammonium hydrogen citrate (Fluka) in 1 ml acetonitrile/0.1% TFA in water (1/1, v/v). A small volume (≈1 μl) of the matrix-analyte-mixture was transferred to a probe tip and immediately evaporated in a vacuum chamber (Hewlett-Packard G2024A sample prep accessory) to ensure rapid and homogeneous sample crystallization.

DP IV and QC = assay: Consecutive catalysis of DP IV and QC in crude pituitary homogenate with added DPIV, MALDI-TOF; type: biochemical, porcine; details: inhibitor added
Experimental: as §1

mammalian QC = details: Busby et al. 1987; cited from earlier work
QC [5] = biological target: T1, QC; assay: Enzyme inactivation/reactivation of human QC; type: biochemical; parameters: The cDNA of the mature QC starting with codon 38 was fused in frame with the plasmid encoded 6× histidine tag; 6x histidine tag; made in house; host or cells: Pichia pastoris X33 (pPICZαB); also E. coli M15 (pQE-31)
DP IV (porcine kidney) = biological target: T2, DP IV (porcine kidney) (Sus scrofa, UniProt P22411); assay: DP IV cleavage of Gln3-Aβ(1-11)a, MALDI-TOF; type: biochemical
T2 construct: purified DP IV (porcine kidney); from tissue; host or cells: porcine kidney
Experimental: as §1

T1 sequence (Q16769 29-361): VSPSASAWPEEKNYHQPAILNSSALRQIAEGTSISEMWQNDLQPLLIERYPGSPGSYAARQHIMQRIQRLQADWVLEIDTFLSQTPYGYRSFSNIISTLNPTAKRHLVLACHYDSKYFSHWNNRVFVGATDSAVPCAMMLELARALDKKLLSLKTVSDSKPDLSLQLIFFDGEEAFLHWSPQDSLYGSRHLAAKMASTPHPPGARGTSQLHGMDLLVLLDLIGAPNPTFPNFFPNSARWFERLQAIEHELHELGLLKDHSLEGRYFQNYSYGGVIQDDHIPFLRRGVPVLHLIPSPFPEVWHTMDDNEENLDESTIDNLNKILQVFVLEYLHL
T2 sequence (P22411 whole entry): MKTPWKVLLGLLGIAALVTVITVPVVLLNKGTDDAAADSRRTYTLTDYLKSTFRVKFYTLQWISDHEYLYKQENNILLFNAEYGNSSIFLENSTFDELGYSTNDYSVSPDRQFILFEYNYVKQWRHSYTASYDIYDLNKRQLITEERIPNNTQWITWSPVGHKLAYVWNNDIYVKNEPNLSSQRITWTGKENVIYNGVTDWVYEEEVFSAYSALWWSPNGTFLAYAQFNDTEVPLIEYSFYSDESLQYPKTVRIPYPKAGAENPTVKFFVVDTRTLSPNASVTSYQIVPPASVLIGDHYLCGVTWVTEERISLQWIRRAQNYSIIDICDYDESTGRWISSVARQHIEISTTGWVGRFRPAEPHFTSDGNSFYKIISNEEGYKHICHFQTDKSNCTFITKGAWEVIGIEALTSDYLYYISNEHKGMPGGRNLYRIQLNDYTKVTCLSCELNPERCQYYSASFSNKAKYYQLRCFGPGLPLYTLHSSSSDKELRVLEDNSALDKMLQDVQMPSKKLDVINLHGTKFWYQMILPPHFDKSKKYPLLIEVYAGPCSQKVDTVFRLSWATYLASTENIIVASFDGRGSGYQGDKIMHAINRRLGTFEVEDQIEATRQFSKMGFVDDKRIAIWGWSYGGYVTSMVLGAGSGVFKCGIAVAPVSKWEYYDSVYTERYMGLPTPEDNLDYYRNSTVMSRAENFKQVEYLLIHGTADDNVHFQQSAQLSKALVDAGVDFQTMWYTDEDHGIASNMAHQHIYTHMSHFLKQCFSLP

Compound: [Gln^5]-substance P(5-11): substance P fragment 5-11 with N-terminal Gln^5 after cleavage of residues 1-4 (QQFFGLM; ends and bridges not checked)
formation of N-terminal pyroglutamate catalyzed by QC (QC [2]): transformed by QC

Compound: c1cnc2c(c1)ccc1cccnc12 [1,10-phenanthroline]
inhibition of formation of [pGlu3]Aβ(3-11)a from Gln3-Aβ(3-11)a [4]: inhibited; also recorded: inhibition of the formation
[pGlu3]Aβ(3-11)a formation from Gln3-Aβ(1-11)a in presence of DP IV and QC (DP IV and QC): inhibition
inhibition of mammalian QC (mammalian QC): Inhibition of a mammalian QC was only detected
inhibition of human QC catalyzed substrate cyclization by chelators (QC [5]): inhibited
inactivation of human QC after extensive dialysis (QC [5]; 5 mM inactivating agent): almost completely inactivated

Compound: CC(C)[C@H](N)C(=O)N1CCCC1 [Val-Pyrr, Val-Pyrrolidide]
prevention of DP IV cleavage of Gln3-Aβ(1-11)a (DP IV (porcine kidney)): completely prevented
prevention of DP IV cleavage of Gln3-Aβ(1-11)a (DP IV (porcine kidney); listed as Val-Pyrrolidide): prevention of the cleavage
[pGlu3]Aβ(3-11)a formation from Gln3-Aβ(1-11)a in presence of DP IV and QC (DP IV and QC): reduction

Continued, values first:

suppression of [pGlu3]Aβ(3-11)a / [pGlu3]Aβ(3-21)a formation (QC [1]): suppressed
suppression of [pGlu3]Aβ(3-11)a / [pGlu3]Aβ(3-21)a formation (QC [1]; listed as Benzimidazole): suppressing the formation
Compound: c1ccc2[nH]cnc2c1 [benzimidazole]

solubility in aqueous solution [3]: better solubility
Compound: QFRHDSGYE-NH2 [[Gln^3]Aβ3-11a]

Source: US7462599B2, “Use of effectors of glutaminyl and glutamate cyclases” (Probiodrug AG, priority 2003, dated 2008)
